Legend:
Type in all cases: functional
HCT-15 = test: Growth inhibition of human HCT15 cells assessed as cell growth at 3 uM incubated for 48 hrs by sulforhodamine B assay relative to control; conditions: HCT-15, 48 h, read-out: Activity
IGROV-1 [1] = test: Growth inhibition of human IGROV1 cells assessed as cell growth at 0.03 uM incubated for 48 hrs by sulforhodamine B assay relative to control; conditions: IGROV-1, 48 h, read-out: Activity
Hs-578T = test: Growth inhibition of human Hs 578T cells assessed as cell growth at 0.003 uM incubated for 48 hrs by sulforhodamine B assay relative to control; conditions: read-out: Activity
SK-MEL-5 = test: Growth inhibition of human SK-MEL-5 cells assessed as cell growth at 3 uM incubated for 48 hrs by sulforhodamine B assay relative to control; conditions: SK-MEL-5, 48 h, read-out: Activity
CAKI-1 [2] = test: Growth inhibition of human Caki1 cells assessed as cell growth at 30 uM incubated for 48 hrs by sulforhodamine B assay relative to control; conditions: CAKI-1, 48 h, read-out: Activity
PC-3 [3] = test: Growth inhibition of human PC3 cells assessed as cell growth at 30 uM incubated for 48 hrs by sulforhodamine B assay relative to control; conditions: PC-3, 48 h, read-out: Activity
MCF7 = test: Growth inhibition of human MCF7 cells assessed as cell growth at 3 uM incubated for 48 hrs by sulforhodamine B assay relative to control; conditions: MCF7, 48 h, read-out: Activity
SNB-19 [4] = test: Growth inhibition of human SNB19 cells assessed as cell growth at 0.03 uM incubated for 48 hrs by sulforhodamine B assay relative to control; conditions: SNB-19, 48 h, read-out: Activity
TK-10 [5] = test: Growth inhibition of human TK10 cells assessed as cell growth at 0.03 uM incubated for 48 hrs by sulforhodamine B assay relative to control; conditions: TK-10, 48 h, read-out: Activity
CAKI-1 [6] = test: Growth inhibition of human Caki1 cells assessed as cell growth at 3 uM incubated for 48 hrs by sulforhodamine B assay relative to control; conditions: CAKI-1, 48 h, read-out: Activity
CCRF-CEM = test: Growth inhibition of human CCRF-CEM cells assessed as cell growth at 0.3 uM incubated for 48 hrs by sulforhodamine B assay relative to control; conditions: read-out: Activity
SN12C = test: Growth inhibition of human SN12C cells assessed as cell growth at 0.03 uM incubated for 48 hrs by sulforhodamine B assay relative to control; conditions: read-out: Activity
SF-539 [7] = test: Growth inhibition of human SF539 cells assessed as cell growth at 0.03 uM incubated for 48 hrs by sulforhodamine B assay relative to control; conditions: SF-539, 48 h, read-out: Activity
SK-OV-3 = test: Growth inhibition of human SKOV3 cells assessed as cell growth at 0.003 uM incubated for 48 hrs by sulforhodamine B assay relative to control; conditions: SK-OV-3, 48 h, read-out: Activity
NCI-H226 = test: Growth inhibition of human NCI-H226 cells assessed as cell growth at 0.003 uM incubated for 48 hrs by sulforhodamine B assay relative to control; conditions: NCI-H226, 48 h, read-out: Activity
BT-549 = test: Growth inhibition of human BT549 cells assessed as cell growth at 0.03 uM incubated for 48 hrs by sulforhodamine B assay relative to control; conditions: BT-549, 48 h, read-out: Activity
OVCAR-8 = test: Growth inhibition of human OVCAR8 cells assessed as cell growth at 0.003 uM incubated for 48 hrs by sulforhodamine B assay relative to control; conditions: OVCAR-8, 48 h, read-out: Activity
Malme-3M [8] = test: Growth inhibition of human MALME-3M cells assessed as cell growth at 0.3 uM incubated for 48 hrs by sulforhodamine B assay relative to control; conditions: read-out: Activity
Malme-3M [9] = test: Growth inhibition of human MALME-3M cells assessed as cell growth at 100 uM incubated for 48 hrs by sulforhodamine B assay relative to control; conditions: read-out: Activity
OVCAR-4 = test: Growth inhibition of human OVCAR4 cells assessed as cell growth at 0.1 uM incubated for 48 hrs by sulforhodamine B assay relative to control; conditions: OVCAR-4, 48 h, read-out: Activity
SNB-19 [10] = test: Growth inhibition of human SNB19 cells assessed as cell growth at 0.1 uM incubated for 48 hrs by sulforhodamine B assay relative to control; conditions: SNB-19, 48 h, read-out: Activity
786-0 = test: Growth inhibition of human 786-0 cells assessed as cell growth at 10 uM incubated for 48 hrs by sulforhodamine B assay relative to control; conditions: 786-0, 48 h, read-out: Activity
PC-3 [11] = test: Growth inhibition of human PC3 cells assessed as cell growth at 0.01 uM incubated for 48 hrs by sulforhodamine B assay relative to control; conditions: PC-3, 48 h, read-out: Activity
TK-10 [12] = test: Growth inhibition of human TK10 cells assessed as cell growth at 1 uM incubated for 48 hrs by sulforhodamine B assay relative to control; conditions: TK-10, 48 h, read-out: Activity
IGROV-1 [13] = test: Growth inhibition of human IGROV1 cells assessed as cell growth at 0.01 uM incubated for 48 hrs by sulforhodamine B assay relative to control; conditions: IGROV-1, 48 h, read-out: Activity
SF-539 [14] = test: Growth inhibition of human SF539 cells assessed as cell growth at 0.1 uM incubated for 48 hrs by sulforhodamine B assay relative to control; conditions: SF-539, 48 h, read-out: Activity
A549 = test: Growth inhibition of human A549/ATCC cells assessed as cell growth at 1 uM incubated for 48 hrs by sulforhodamine B assay relative to control; conditions: A549, 48 h, read-out: Activity
ACHN = test: Growth inhibition of human ACHN cells assessed as cell growth at 1 uM incubated for 48 hrs by sulforhodamine B assay relative to control; conditions: read-out: Activity
SR [15] = test: Growth inhibition of human SR cells assessed as cell growth at 100 uM incubated for 48 hrs by sulforhodamine B assay relative to control; conditions: read-out: Activity
EKVX = test: Growth inhibition of human EKVX cells assessed as cell growth at 100 uM incubated for 48 hrs by sulforhodamine B assay relative to control; conditions: read-out: Activity
UACC-257 = test: Growth inhibition of human UACC257 cells assessed as cell growth at 100 uM incubated for 48 hrs by sulforhodamine B assay relative to control; conditions: UACC-257, 48 h, read-out: Activity
SR [16] = test: Growth inhibition of human SR cells assessed as cell growth at 0.01 uM incubated for 48 hrs by sulforhodamine B assay relative to control; conditions: read-out: Activity
COLO 205 = test: Growth inhibition of human COLO205 cells assessed as cell growth at 0.01 uM incubated for 48 hrs by sulforhodamine B assay relative to control; conditions: COLO 205, 48 h, read-out: Activity
RXF 393 = test: Growth inhibition of human RXF393 cells assessed as cell growth at 10 uM incubated for 48 hrs by sulforhodamine B assay relative to control; conditions: RXF 393, 48 h, read-out: Activity
SNB-75 [17] = test: Growth inhibition of human SNB75 cells assessed as cell growth at 100 uM incubated for 48 hrs by sulforhodamine B assay relative to control; conditions: SNB-75, 48 h, read-out: Activity
SNB-75 [18] = test: Growth inhibition of human SNB75 cells assessed as cell growth at 10 uM incubated for 48 hrs by sulforhodamine B assay relative to control; conditions: SNB-75, 48 h, read-out: Activity

COc1cc2cc(Oc3ccc(NC(=O)Nc4ccc(Cl)c(C(F)(F)F)c4)cc3)c(C)nc2cc1OC
growth at 3 µM (HCT-15): 16%
growth at 0.03 µM (IGROV-1 [1]): 107%
growth at 0.003 µM (Hs-578T): 83%
growth at 3 µM (SK-MEL-5): -20%
growth at 30 µM (CAKI-1 [2]): -55%
growth at 30 µM (PC-3 [3]): -50%
growth at 3 µM (MCF7): 7%
growth at 0.03 µM (SNB-19 [4]): 95%
growth at 0.03 µM (TK-10 [5]): 91%
growth at 3 µM (CAKI-1 [6]): -11%
growth at 0.3 µM (CCRF-CEM): 101%
growth at 0.03 µM (SN12C): 95%
growth at 0.03 µM (SF-539 [7]): 100%
growth at 0.003 µM (SK-OV-3): 101%
growth at 0.003 µM (NCI-H226): 96%
growth at 0.03 µM (BT-549): 83%
growth at 0.003 µM (OVCAR-8): 94%
growth at 0.3 µM (Malme-3M [8]): 110%

COc1cc2cc(Oc3ccc(NC(=O)Nc4cc(C(F)(F)F)cc(C(F)(F)F)c4)cc3)c(C)nc2cc1OC
growth at 100 µM (Malme-3M [9]): -74%
growth at 0.1 µM (OVCAR-4): 83%
growth at 0.1 µM (SNB-19 [10]): 97%
growth at 10 µM (786-0): -90%
growth at 0.01 µM (PC-3 [11]): 92%
growth at 1 µM (TK-10 [12]): 81%
growth at 0.01 µM (IGROV-1 [13]): 96%
growth at 0.1 µM (SF-539 [14]): 94%
growth at 1 µM (A549): 65%
growth at 1 µM (ACHN): 17%
growth at 100 µM (SR [15]): -19%
growth at 100 µM (EKVX): -94%
growth at 100 µM (UACC-257): -78%
growth at 0.01 µM (SR [16]): 92%
growth at 0.01 µM (COLO 205): 93%
growth at 10 µM (RXF 393): -44%
growth at 100 µM (SNB-75 [17]): -44%
growth at 10 µM (SNB-75 [18]): -32%

COc1cc2cc(Oc3ccc(NC(=O)Nc4ccc(Cl)c(Cl)c4)cc3)c(C)nc2cc1OC
growth at 100 µM (Malme-3M [9]): -99%
growth at 0.1 µM (OVCAR-4): 87%
growth at 0.1 µM (SNB-19 [10]): 93%
growth at 10 µM (786-0): 22%
growth at 0.01 µM (PC-3 [11]): 96%
growth at 1 µM (TK-10 [12]): 114%
growth at 0.01 µM (IGROV-1 [13]): 110%
growth at 0.1 µM (SF-539 [14]): 103%
growth at 1 µM (A549): 66%
growth at 1 µM (ACHN): 91%
growth at 100 µM (SR [15]): -48%
growth at 100 µM (EKVX): -36%
growth at 100 µM (UACC-257): -92%
growth at 0.01 µM (SR [16]): 107%
growth at 0.01 µM (COLO 205): 106%
growth at 10 µM (RXF 393): 19%
growth at 100 µM (SNB-75 [17]): -59%
growth at 10 µM (SNB-75 [18]): -7%

Cc1nc2cc(O)c(O)cc2cc1Oc1ccc(NC(=O)Nc2ccc(Cl)c(Cl)c2)cc1
growth at 3 µM (HCT-15): 62%
growth at 0.03 µM (IGROV-1 [1]): 104%
growth at 0.003 µM (Hs-578T): 93%
growth at 3 µM (SK-MEL-5): 85%
growth at 30 µM (CAKI-1 [2]): -2%
growth at 30 µM (PC-3 [3]): 6%
growth at 3 µM (MCF7): 87%
growth at 0.03 µM (SNB-19 [4]): 103%
growth at 0.03 µM (TK-10 [5]): 104%
growth at 3 µM (CAKI-1 [6]): 62%
growth at 0.3 µM (CCRF-CEM): 98%
growth at 0.03 µM (SN12C): 102%
growth at 0.03 µM (SF-539 [7]): 105%
growth at 0.003 µM (SK-OV-3): 104%
growth at 0.003 µM (NCI-H226): 101%
growth at 0.03 µM (BT-549): 94%
growth at 0.003 µM (OVCAR-8): 98%
growth at 0.3 µM (Malme-3M [8]): 81%

— ChEMBL document CHEMBL3994622, “Design and synthesis of new RAF kinase-inhibiting antiproliferative quinoline derivatives. Part 2: Diarylurea derivatives” (Eur J Med Chem, 2017)
